Results from patent publication US20190111059A1, “COMPOSITIONS AND METHODS FOR TREATING AUTISM SPECTRUM DISORDER” (Marinus Pharmaceuticals, Inc., priority 2017, published 2019).
Structures can show the parent of a compound that is named as a salt.

Tests used:
Type in all cases: in vivo, human
[1] = system: children with ASD who were positive for at least one FRAA; assay: Controlled open-label study of high-dose folinic acid (Example 1); details: 2 mg kg^−1 per day in two divided doses, maximum 50 mg per day
[2] = system: children with non-syndromic autism spectrum disorder (ASD) and language impairment; assay: Randomized placebo-controlled trial: Aberrant Behavior Checklist (ABC), parent questionnaire; details: lower = less problems; for ABC Hyperactivity, estimated effect / ABC Inappropriate speech, estimated effect / ABC Irritability, estimated effect / ABC Lethargy, estimated effect / ABC Stereotyped behavior, estimated effect / ABC Total Score, estimated effect: vs placebo, mixed-model regression, calcium salt
Text: The Aberrant Behavior Checklist (“ABC”) is a 58-item questionnaire that measures disruptive behaviors, including Irritability (15 items, range 0-45); Social Withdrawal (16 items, range 0-48); Stereotypy (7 items, range 0-21); Hyperactivity (16 items, range 0-48) and Inappropriate Speech (4 items, range 0-12). Each item is rated 0 to 3 with higher scores indicating greater severity. Multiple ASD clinical trials have used it and it has convergent and divergent validity. […] This two-arm double-blind randomized placebo-controlled parallel study with a 1:1 allocation was performed at Arkansas Children's Research Institute (Little Rock, Ark., USA) from 4 Jun. 2012 to 22 Nov. 2013. Parent and teacher questionnaires were requested at baseline and 6 and 12 weeks after starting treatment. Parents were asked to deliver baseline questionnaires to teachers or therapists. After the first visit, questionnaires were mailed to the parents and teachers at least 1 week prior to the target date of completion. Parents were asked to bring the completed teacher and parent 12-week questionnaires to the final assessment. Other questionnaires were returned in a preaddressed postage-paid envelope. The target dose of the intervention (INN: DL folinic acid calcium salt; USAN: leucovorin calcium) was 2 mg kg^−1 per day (maximum 50 mg per day) in two equally divided doses with half of the target dose given during the first 2 weeks. Dye-free, milk-product-free, vegetarian capsules were provided in three strengths (5, 10 and 25 mg) by Lee Silsby Compounding Pharmacy (Cleveland Heights, Ohio, USA). Certificate of analysis was provided for each capsule strength by an independent analytical service (Eagle Analytical Services, Houston, Tex., USA) for each batch of capsules produced. In all cases, potency was at least 99%. Secondary outcomes. Secondary outcome measures included the Ohio Autism Clinical Impression Scale (OACIS), Vineland Adaptive Behavior Scale 2nd Edition (VABS) Survey Interview Form and several questionnaires. Parents and teachers were asked to complete the Aberrant Behavior Checklist (ABC), Social Responsiveness Scale (SRS) and Behavioral Assessment System for Children 2nd Edition (BASC). Only parents were asked to complete the Autism Impact Measure (AIM) and Autism Symptoms Questionnaire (ASQ). Secondary outcome measures were analyzed using the mixed-model regression. Because of the large number of secondary outcomes, correction for multiple comparisons was conducted using the false discovery rate.

[3] = system: children with non-syndromic autism spectrum disorder (ASD) and language impairment; assay: Randomized placebo-controlled trial: Social Responsiveness Scale (SRS); details: lower = less social symptoms
Text: The Social Responsiveness Scale (“SRS”) is a 65-item questionnaire that measures social skills across five domains: Social Awareness (8 items, meaningful change 7.1), Social Cognition (12 items, meaningful change 5.8), Social Communication (22 items, meaningful change 4.2), Social Motivation (11 items, meaningful change 5.7), Autistic Mannerisms (12 items, meaningful change 5.5) and total (65 items). Each item is rated 0 to 3 with higher scores indicating greater severity. Standardized T-scores (mean 50, standard deviation 10) range 30-90. This two-arm double-blind randomized placebo-controlled parallel study with a 1:1 allocation was performed at Arkansas Children's Research Institute (Little Rock, Ark., USA) from 4 Jun. 2012 to 22 Nov. 2013. Parent and teacher questionnaires were requested at baseline and 6 and 12 weeks after starting treatment. Parents were asked to deliver baseline questionnaires to teachers or therapists. After the first visit, questionnaires were mailed to the parents and teachers at least 1 week prior to the target date of completion. Parents were asked to bring the completed teacher and parent 12-week questionnaires to the final assessment. Other questionnaires were returned in a preaddressed postage-paid envelope. The target dose of the intervention (INN: DL folinic acid calcium salt; USAN: leucovorin calcium) was 2 mg kg^−1 per day (maximum 50 mg per day) in two equally divided doses with half of the target dose given during the first 2 weeks. Dye-free, milk-product-free, vegetarian capsules were provided in three strengths (5, 10 and 25 mg) by Lee Silsby Compounding Pharmacy (Cleveland Heights, Ohio, USA). Certificate of analysis was provided for each capsule strength by an independent analytical service (Eagle Analytical Services, Houston, Tex., USA) for each batch of capsules produced. In all cases, potency was at least 99%. Secondary outcomes. Secondary outcome measures included the Ohio Autism Clinical Impression Scale (OACIS), Vineland Adaptive Behavior Scale 2nd Edition (VABS) Survey Interview Form and several questionnaires. Parents and teachers were asked to complete the Aberrant Behavior Checklist (ABC), Social Responsiveness Scale (SRS) and Behavioral Assessment System for Children 2nd Edition (BASC). Only parents were asked to complete the Autism Impact Measure (AIM) and Autism Symptoms Questionnaire (ASQ). Secondary outcome measures were analyzed using the mixed-model regression. Because of the large number of secondary outcomes, correction for multiple comparisons was conducted using the false discovery rate.

[4] = vs placebo, mixed-model regression

Nc1nc2c(c(=O)[nH]1)N(C=O)C(CNc1ccc(C(=O)N[C@@H](CCC(=O)O)C(=O)O)cc1)CN2 (mixture of isomers) [Folinic acid, DL folinic acid calcium salt]
Adverse effects [1]: very few adverse effects reported
Improvements in verbal communication, receptive and expressive language, attention, and stereotypical behavior [1]: significant improvements
ABC Inappropriate speech, 12-week assessment mean ([2]; 2 mg kg^−1 per day, 12 weeks, baseline 5.2): 4.0 Raw Score
ABC Stereotyped behavior, 12-week assessment mean ([2]; 2 mg kg^−1 per day, 12 weeks, baseline 6.1): 3.7 Raw Score
ABC Lethargy, 12-week assessment mean ([2]; 2 mg kg^−1 per day, 12 weeks, baseline 13.1): 9.7 Raw Score
ABC Irritability, 12-week assessment mean ([2]; 2 mg kg^−1 per day, 12 weeks, baseline 13.4): 9.1 Raw Score
ABC Hyperactivity, 12-week assessment mean ([2]; 2 mg kg^−1 per day, 12 weeks, baseline 25.0): 22.1 Raw Score
ABC Total Score, 12-week assessment mean ([2]; 2 mg kg^−1 per day, 12 weeks, baseline 62.7): 48.5 Raw Score
ABC Hyperactivity, estimated effect [2]: −1.8 Raw Score
ABC Inappropriate speech, estimated effect [2]: −1.7 Raw Score
ABC Irritability, estimated effect [2]: −1.2 Raw Score
ABC Lethargy, estimated effect [2]: −1.4 Raw Score
ABC Stereotyped behavior, estimated effect [2]: −0.9 Raw Score
ABC Total Score, estimated effect [2]: −4.7 Raw Score
ABC Hyperactivity, estimated effect ([2]; listed as folinic acid): significantly improved
ABC Inappropriate speech, estimated effect ([2]; listed as folinic acid): significantly improved
ABC Irritability, estimated effect ([2]; listed as folinic acid): significantly improved
ABC Lethargy, estimated effect ([2]; listed as folinic acid): significantly improved
ABC Stereotyped behavior, estimated effect ([2]; listed as folinic acid): significantly improved
ABC Total Score, estimated effect ([2]; listed as folinic acid): significantly improved
SRS Motivation, 12-week assessment mean ([3]; 2 mg kg^−1 per day, 12 weeks, baseline 75.5): 70.3 T-Scores
SRS Awareness, 12-week assessment mean ([3]; 2 mg kg^−1 per day, 12 weeks, baseline 79.2): 78.7 T-Scores
SRS Communication, 12-week assessment mean ([3]; 2 mg kg^−1 per day, 12 weeks, baseline 82.5): 80.1 T-Scores
SRS Mannerisms, 12-week assessment mean ([3]; 2 mg kg^−1 per day, 12 weeks, baseline 83.4): 80.5 T-Scores
SRS Cognition, 12-week assessment mean ([3]; 2 mg kg^−1 per day, 12 weeks, baseline 83.7): 79.3 T-Scores
SRS Total, 12-week assessment mean ([3]; 2 mg kg^−1 per day, 12 weeks, baseline 84.9): 82.2 T-Scores
SRS Awareness, estimated effect [3, 4]: 0.3 T-Scores
SRS Cognition, estimated effect [3, 4]: 0.8 T-Scores
SRS Communication, estimated effect [3, 4]: 1.5 T-Scores
SRS Mannerisms, estimated effect [3, 4]: 0.9 T-Scores
SRS Motivation, estimated effect [3, 4]: 0.2 T-Scores
SRS Total, estimated effect [3, 4]: 0.8 T-Scores
